Measurements as given in patent US20010007020A1, “ANTIBODIES THAT BIND TO THE NIDOGEN-BINDING DOMAIN OF LAMININ, THEIR PRODUCTION AND USE” (HOECHST AKTIENGESELLSCHAFT, priority 1997, published 2001).

Tests used:
[1] = biological target: laminin/nidogen binding (radioactively labeled nidogen to laminin P1-coated tubes); experiment: coated-tube inhibition assay, simultaneous inhibition; parameters: species or system human; details: simultaneous assay type
Experimental: (§1) The inhibitory activity of the affinity-purified antibodies can be identified by means of a coated-tube assay which measures the binding of radioactively labeled nidogen to (human placental) laminin P1-coated tubes in the presence of the antibodies.
(§2) Recombinantly produced human nidogen (35 μg, for description of the clone and culturing and purification conditions, see Mayer, U. et al. (1995) Eur. J. Biochem. 227:681-686) was dissolved in 250 μl of PBS, and 0.405 mCi (=15 Mbq) of Na iodide (^125I) solution (=1.55 μl, Nordion Europe), 10 μl of 0.5 M Na phosphate, pH 7.4, and 40 μg of chloramine T (N-chloro-4-toluenesulfonamide sodium salt, Merck) in 100 μl of 0.05 M Na phosphate, pH 7.4, were added to the solution. The reaction took place for 60 seconds at room temperature and was stopped by adding a solution of 40 μg of Na metabisulfite (Riedel-de-Haen) in 100 μl of 0.05 M Na phosphate, pH 7.4. This addition was made in at most 30 seconds and 900 μl of 1% BSA (Sigma) in PBS were then added to the mixture. Free radioactivity and excess salts were separated off by means of molecular sieve chromatography using a PD 10 column (Pharmacia). The iodinated nidogen, which was eluted in PBS, was pooled and diluted with 1% BSA/0.05 M Na phosphate/0.01% Na azide, pH 7.4, such that a concentration of 50 ng/ml was obtained. […]
Target sequence in this assay (P11047 773-934 limits assumed, one chain of several): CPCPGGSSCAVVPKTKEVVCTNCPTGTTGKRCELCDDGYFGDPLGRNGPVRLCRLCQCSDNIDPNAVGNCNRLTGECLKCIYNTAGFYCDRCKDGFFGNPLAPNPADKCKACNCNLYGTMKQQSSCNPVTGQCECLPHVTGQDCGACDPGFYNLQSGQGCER

[2] = biological target: laminin/nidogen binding (radioactively labeled nidogen to laminin P1-coated tubes); experiment: coated-tube inhibition assay, sequential inhibition; parameters: species or system human
Experimental: as §1, §2
Inhibition assay using “laminin-mimetic” structures (sequential inhibition) 200 μl of iodinated nidogen (approx. 10 ng, approx. 40,000 counts per min) and 200 μl of the inhibitor (e.g. peptides which can be derived from the laminin γ1 III 4 domain) or standards (laminin γ1 III 3-5) were shaken in a reaction vessel at room temperature. […] Finally, the solution was tipped out and the tubes were washed twice with 1 ml of PBS/0.04% Tween 20, after which the bound radioactivity (nidogen) was measured in a gamma counter. The quantity of bound nidogen in the solutions containing inhibitor was related to that of the nidogen when no inhibitor was added. […]

laminin P1 = experiment: BIAcore binding kinetics on immobilized laminin P1; details: 20 μg/ml; matrix with 4000 RU laminin P1
Excerpt: Biospecific interactions can be monitored on-line using the BIAcore® system from Pharmacia Biosensor. The principle of the measurement is based on an optical phenomenon (surface plasmon resonance) which is affected by the mass which is bound on a gold film. Expressed in simple terms, the system is miniaturized affinity chromatography on a gold sensor surface. The quantity of specifically bound ligand can be depicted visually in the form of a resonance signal (Chaiken, I. et al. (1992) Anal. Biochem. 201:197-201; Karisson, R. et al. (1992) in: Structure of Antigens; (Ed.: van Regenmortel). pp. 127-148; CRC Press, Boca Raton, Fla.)
Laminin P1 was immobilized, at a concentration of 200 μg/ml in 10 mM Na acetate, pH 4.0, on the sensor chip in accordance with the instructions in the user manual. A matrix containing 4000 RU of bound laminin P1 is obtained. A double impulse of in each case 4 μl of 100 mM HCl can be carried out in order to regenerate the affinity matrix.
The fact that it was still not possible to observe any transition to the equilibrium state after 1400 seconds can be an expression of the fact that the specific peptide sequence of laminin P1 which is responsible for binding nidogen was readily available to the antibodies. The antibodies bound to this sequence irrespective of whether it was in the biologically active conformation or in a different conformation. […]

[3] = sequential assay type, read-out: IC50% inhibition of laminin/nidogen binding

Sequence of laminin P1 (P11047 773-934 limits assumed): as the sequence (P11047 773-934 limits assumed, one chain of several) above

IC50 [1] | IC50 ([2]; in the assay described here, shortened incubation times, variant not stated, read-out: IC50%) | IC50 [2, 3] | bound amount at transition to the saturation phase (laminin P1) | Molecule
60 µM | 60 µM | 60 µM | – | DNIDPNAVGNL [(1), peptide used for immunization]
20 µM | – | 20 µM | – | DNIDPNAVGNLKCIYNTAGFYCDR [(2), peptide used for immunization]
– | – | – | 600 RU | nidogen: recombinantly produced human nidogen, 160 kDa glycoprotein (protein, UniProt P14543 29-1247, looked up) Nidogen-1: LSRQELFPFGPGQGDLELEDGDDFVSPALELSGALRFYDRSDIDAVYVTTNGIIATSEPPAKESHPGLFPPTFGAVAPFLADLDTTDGLGKVYYREDLSPSITQRAAECVHRGFPEISFQPSSAVVVTWESVAPYQGPSRDPDQKGKRNTFQAVLASSDSSSYAIFLYPEDGLQFHTTFSKKENNQVPAVVAFSQGSVGFLWKSNGAYNIFANDRESVENLAKSSNSGQQGVWVFEIGSPATTNGVVPADVILGTEDGAEYDDEDEDYDLATTRLGLEDVGTTPFSYKALRRGGADTYSVPSVLSPRRAATERPLGPPTERTRSFQLAVETFHQQHPQVIDVDEVEETGVVFSYNTDSRQTCANNRHQCSVHAECRDYATGFCCSCVAGYTGNGRQCVAEGSPQRVNGKVKGRIFVGSSQVPIVFENTDLHSYVVMNHGRSYTAISTIPETVGYSLLPLAPVGGIIGWMFAVEQDGFKNGFSITGGEFTRQAEVTFVGHPGNLVIKQRFSGIDEHGHLTIDTELEGRVPQIPFGSSVHIEPYTELYHYSTSVITSSSTREYTVTEPERDGASPSRIYTYQWRQTITFQECVHDDSRPALPSTQQLSVDSVFVLYNQEEKILRYALSNSIGPVREGSPDALQNPCYIGTHGCDTNAACRPGPRTQFTCECSIGFRGDGRTCYDIDECSEQPSVCGSHTICNNHPGTFRCECVEGYQFSDEGTCVAVVDQRPINYCETGLHNCDIPQRAQCIYTGGSSYTCSCLPGFSGDGQACQDVDECQPSRCHPDAFCYNTPGSFTCQCKPGYQGDGFRCVPGEVEKTRCQHEREHILGAAGATDPQRPIPPGLFVPECDAHGHYAPTQCHGSTGYCWCVDRDGREVEGTRTRPGMTPPCLSTVAPPIHQGPAVPTAVIPLPPGTHLLFAQTGKIERLPLEGNTMRKTEAKAFLHVPAKVIIGLAFDCVDKMVYWTDITEPSIGRASLHGGEPTTIIRQDLGSPEGIAVDHLGRNIFWTDSNLDRIEVAKLDGTQRRVLFETDLVNPRGIVTDSVRGNLYWTDWNRDNPKIETSYMDGTNRRILVQDDLGLPNGLTFDAFSSQLCWVDAGTNRAECLNPSQPSRRKALEGLQYPFAVTSYGKNLYFTDWKMNSVVALDLAISKETDAFQPHKQTRLYGITTALSQCPQGHNYCSVNNGGCTHLCLATPGSRTCRCPDNTLGVDCIEQK
